Data as given in patent EP0584588A1, “Anti-ulcer composition containing imidazole derivative” (NIPPON CHEMIPHAR CO., LTD., priority 1992, dated 1994).
Like-named read-outs stand apart in the source and are kept apart here.

Legend:
[1] = Stability in acidic conditions (Britten-Robinson buffer, HPLC); type: physicochemical
Description: The stability of the compound in acidic conditions was determined at 37 °C in Britten-Robinson buffer which had been previously adjusted to pH 3.0, 5.0 or 7.0. The compound was dissolved in this buffer by supersonic waves, and the filtered solution was monitored by high performance liquid chromatography (HPLC) (Tosoh TSK-gel ODS-120T 4.6-250mm, CH₃CN/10 mM phosphate buffer (pH 6.0), 1 ml/min., room temperature (25 °C), detector ultraviolet (UV) 240-250 nm). Half-lives (T1/2) were determined from linear regression of the concentration vs. time (h).

HCl-ethanol erosion = HCl-ethanol erosion model (cytoprotective action on gastrointestinal tract); type: in vivo, SD rats; details: Rattus norvegicus, 0.5 h; oral, 30 min. before HCl-ethanol mixture; total length of erosions; read-out: ED₅₀
Description: To a mixture of 2-[(2-Isobutylamino)benzylthio]imidazole (1 g) obtained in (i) above, chloroform (40 ml), and methanol (10 ml) was portionwise added under chilling with ice, m-chloroperbenzoic acid (equivalent molar amount). After completion of the reaction was confirmed using TLC, the reaction mixture was made alkaline by addition of saturated aqueous sodium hydrogen carbonate and extracted with chloroform. The chloroform portion was then treated successively with three portions of 10 ml of 0.1 N aqueous NaOH and one portion of 20 ml of 0.1 N aqueous NaOH to transfer the desired product into the aqueous portions. The obtained four aqueous portions were separately made ammonia-alkaline by addition of 20% aqueous […]. The precipitated crystals were collected, washed sufficiently with ether, and dried to give 0.6 g (yield: 56.5%) of the desired product as a white crystalline powder. […]
SD rats were fested for 24 hours. […] Length (mm) of each erosion was measured, and the total length (mm) of the erosions observed in one rat was calculated. […]

Row | SMILES | half-life ([1]; britten-robinson buffer, pH 3) [min] | half-life ([1]; britten-robinson buffer, pH 5) [min] | half-life ([1]; britten-robinson buffer, pH 7) [min] | ED50 (HCl-ethanol erosion) [mg/kg] | half-life ([1]; pH 3.0, 37°C, Britten-Robinson buffer, read-out: (T1/2) (converted)) [min] | half-life ([1]; pH 5.0, 37°C, Britten-Robinson buffer, read-out: (T1/2) (converted)) [min] | half-life ([1]; pH 7.0, 37°C, Britten-Robinson buffer, read-out: (T1/2) (converted)) [min]
1 | CC(C)CNc1ccccc1C[S+]([O-])c1ncc[nH]1 (stereo not shown) [Imidazole derivative A, 2-[(2-Isobutylamino)benzylsulfinyl]imidazole] | 1.8 | 55.8 | 3780 | 3.6 | – | – | –
2 | COc1ccc2[nH]c([S+]([O-])Cc3ncc(C)c(OC)c3C)nc2c1 (stereo not shown) [Omeprazole, reference compound] | – | – | – | – | 3 | 20.4 | 1620
